Measurements: patent publication US20120231482A1, “METHOD, KIT OR DIAGNOSTIC FOR THE DETECTION OF REAGENTS WHICH INDUCE ALTERED CONTRACTILITY” (THE JOHNS HOPKINS UNIVERSITY, priority 2009, published 2012)

Legend:
[1] = system: rat cardiac muscle; experiment: Force and [Ca2+]i measurements in cardiac trabeculae; type: cell-based; details: control compounds (NCA hydrolysis products, non-HNO-releasing analogue); data not shown
Experimental: Force and [Ca^2+]i Measurements in Cardiac Trabeculae.
Rat hearts were exposed via midsternotomy after the animals were anesthetized with intraperitoneal injection of pentobarbital (100 mg/kg), and were then rapidly excised and aorta cannulated. The hearts were perfused retrogradely (˜15 ml/min) with high K^+ Krebs-Henseleit (H-K) solution equilibrated with 95% O2 and 5% CO2. Trabeculae were quickly dissected from the right ventricles of the hearts and mounted between a force transducer and a motor arm. The muscles were superfused with K-H solution at a rate of ˜10 ml/min and stimulated at 0.5 Hz. Force was measured using a force transducer system (SI, Germany) and expressed in mN/mm^2. Sarcomere length was measured by laser diffraction. Fura-2 potassium salt was microinjected iontophoretically into one cell and allowed to spread throughout the whole muscle (via gap junctions). The epifluorescence of fura-2 was measured by exciting at 380 and 340 nm. The fluorescent light was collected at 510 nm by a photomultiplier tube (R1527, Hamamatsu). [Ca^2+]i was given by (after subtraction of the autofluorescence): [Ca^2+]i=K′d(R-Rmin)/(Rmax-R), where R is the observed ratio of fluorescence (340/380), K′d is the apparent dissociation constant, Rmax is the ratio of 340 nm/380 nm at saturating [Ca^2+], and Rmin is the ratio of 340 nm/380 nm at zero [Ca^2+]. The values of K′d, Rmax, and Rmin were determined by in vivo calibrations. Tetanization of the trabecula was achieved by addition of ryanodine (1.0 μmol/L) and by increasing the stimulus rate to 10 Hz briefly (˜3 sec) to obtain steady-state force-[Ca^2+] relations. Different levels of tetanized force will be obtained by increasing [Ca^2+] in the perfusate (up to 20-25 mmol/L). The data will be fitted with the Hill equation: F=Fmax[Ca^2+]in/(K1/2n+[Ca^2+]in), where Fmax is the maximal force. K1/2 is [Ca^2+]i at half Fmax, and n is the Hill coefficient.
1-nitrosocyclohexylacetate (NCA) is a new and mechanistically unique HNO donor that has been recently synthesized.

[2] = system: skinned trabeculae; experiment: Force-[Ca2+] relation in skinned trabeculae; type: cell-based, rat; details: skinned muscles; DTT (5 mM) for 10 min after NCA
Experimental: FIG. 2. […] (A) Steady-state force-[Ca^2+]i relationship in intact trabeculae before and after NCA (20 μmol/L). n=5. See text for details. (B) Force-[Ca^2+] relation in skinned trabeculae before and after NCA (n=6). […] The muscles were treated with DTT (5 mM) for 10 min after 1st force-[Ca^2+] was obtained in the presence of NCA alone, and a second force-[Ca^2+] relation was obtained in the presence of NCA+DTT. n=3. (D) For comparison, steady-state force-[Ca^2+]i relationship in intact trabeculae before and after AS (500 μmol/L). n=5.
To further test this hypothesis, steady-state force-[Ca^2+]i relations were obtained by tetanizing the muscles in the presence of ryanodine.

SMILES	effects in cardiac muscles [1]	increases in myofilament Ca2+ sensitivity caused by HNO [2]
O=C1CCCCC1 [cyclohexanone]	did not produce any appreciable effects	
O[C@@H](CS)[C@@H](O)CS [DTT]		completely abolished
CC(C)(C)C(=O)OC1(N=O)CCCCC1 [1-nitrosocyclohexyl pivalate]	had no effects	
